According to patent publication US20160159861A1, “APJ Receptor Compounds” (priority 2013, published 2016):
Where two headings read alike, the source gives them in different places. Peptide text beside a SMILES is read from it.

Columns and labels:
Format in all cases: cell-based
[1] = molecular target: T1, human APJ receptor (hAPJ) (Homo sapiens, UniProt P35414); experiment: HTRF cAMP assay: inhibition of NKH477-stimulated cAMP in HEK cells stably expressing hAPJ; details: for Emax: HEK293, read-out: % IA, bound stated; for % IA (cAMP inhibition, hAPJ HEK): intrinsic activity; for Ranking: composite class of EC50 (hAPJ), % IA and % histamine or formal (+) charge; for inhibition of NKH477-stimulated increase in cAMP, dose dependent: concentration response curves, FIGS. 1 and 2, HEK cells stably expressing APJ
T1 construct: expressed in transfected cells
T1 sequence (P35414 1-380): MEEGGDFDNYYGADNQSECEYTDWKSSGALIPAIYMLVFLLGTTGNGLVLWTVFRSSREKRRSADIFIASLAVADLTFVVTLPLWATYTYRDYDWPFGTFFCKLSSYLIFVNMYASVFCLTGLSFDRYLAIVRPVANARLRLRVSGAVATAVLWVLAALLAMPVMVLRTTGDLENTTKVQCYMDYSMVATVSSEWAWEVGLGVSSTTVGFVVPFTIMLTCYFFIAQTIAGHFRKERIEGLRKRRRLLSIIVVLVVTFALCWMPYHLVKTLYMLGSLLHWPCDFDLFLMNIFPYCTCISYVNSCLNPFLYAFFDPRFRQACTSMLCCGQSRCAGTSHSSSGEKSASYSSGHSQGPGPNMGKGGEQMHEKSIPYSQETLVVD
Method in brief: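 HEK cells stably expressing hAPJ, induced with 1 nG/mL doxycycline and seeded overnight at 40 k/well. cAMP read by HTRF competitive immunoassay using cryptate-labeled anti-cAMP antibody and d2-labeled cAMP.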

rat peritoneal cells = experiment: Ex vivo histamine release assay in rat peritoneal cells (vs. Compound 48/80)
Method in brief: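 Resident peritoneal cells were lavaged from male Sprague Dawley rats and kept in HBSS/20 mM HEPES/0.2% BSA at 25,000 cells/well. They were exposed for 30 min at room temperature to compound at 3 points (100, 10, 1 μM DMSO stocks, 1% DMSO final). Released histamine was measured by HTRF and normalised to total histamine after Triton lysis. Compound 48/80 was the reference.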

CXCR4 receptor = CXCR4 receptor (Homo sapiens, UniProt P61073); experiment: Activity at CXCR4 receptor (selectivity, Gi-coupled GPCR); details: FIGS. 6A-6C, selectivity vs. hAPJ
Sequence of CXCR4 receptor (P61073 whole entry): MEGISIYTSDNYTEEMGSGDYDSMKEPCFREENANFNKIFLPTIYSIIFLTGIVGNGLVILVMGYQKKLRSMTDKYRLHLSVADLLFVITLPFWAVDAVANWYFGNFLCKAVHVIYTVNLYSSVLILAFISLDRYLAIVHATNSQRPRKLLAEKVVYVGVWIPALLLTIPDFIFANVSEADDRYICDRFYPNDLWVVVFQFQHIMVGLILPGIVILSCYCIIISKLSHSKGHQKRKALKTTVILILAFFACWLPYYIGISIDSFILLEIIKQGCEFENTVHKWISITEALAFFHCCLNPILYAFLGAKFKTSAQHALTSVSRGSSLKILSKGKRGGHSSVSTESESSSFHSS

APJ receptor = molecular target: T2, APJ receptor (Homo sapiens, UniProt P35414); experiment: Cellul'erk ERK phosphorylation assay in APJ-TREX cells; set-up: expressed in transfected cells; host or cells: Human TRex (APJ-TREX) cells, doxycycline-inducible expression; details: relative to max pyr-apelin-13 activity at 100 nM; 3 or 0.3 μM compound, 5 minutes
T2 sequence (P35414 1-380): T1 sequence (P35414 1-380)
Method: Experiments were performed to test activation of the ERK and p38 pathways using the Cellul'erk and the Phospho-p38 MAPK (Thr180/Tyr182) assay kits (Cisbio). APJ-TREX cells were optimized for signaling (pre-serum starved overnight with low FBS serum (2% FBS media) with 1 ng/ml doxycyclin (for induction of APJ receptor expression), 50,000 cells, 5 minutes agonist activation for ERK activity). Cells were pretreated with 3 or 0.3 μM pepducin compound for 5 minutes and the reaction was stopped by lysis buffer. Lysates are then transferred to the assay plate for the detection of phosphorylated ERK or p38 by HTRF reagents.

[2] = HTRF cAMP Assay, per data of Table 6
[3] = HTRF cAMP Assay, per data of Table 6, read-out: EC50 (hAPJ), inhibition of cAMP production, bound stated
[4] = Table 6, hAPJ HEK cells, NKH477-stimulated cAMP, read-out: EC50 (cAMP inhibition, hAPJ HEK)

Emax [1, 2] [%] | EC50 [1, 3] [nM] | EC50 [1, 4] [nM] | % IA (cAMP inhibition, hAPJ HEK) ([1]; Table 6, hAPJ HEK cells) [%] | inhibition of NKH477-stimulated increase in cAMP, dose dependent [1] | Histamine (% vs. 48/80) (rat peritoneal cells) [%] | activity at the CXCR4 receptor (CXCR4 receptor) | Average % Activity (ERK agonist activity) (APJ receptor) [%] | SMILES | Ranking [1]
≥ 80 | ≤ 25 | 12 | 97 | inhibited | 9 | lack of dose-responsive activity | 51.8 | CCCCCCCCCCCCCCCC(=O)N[C@@H](CC(=O)O)C(=O)N[C@H](C(=O)N[C@@H](Cc1ccccc1)C(=O)N[C@@H](CCC(N)=O)C(=O)N[C@@H](CO)C(=O)N[C@@H](CO)C(=O)N[C@@H](CCC(=O)O)C(=O)N[C@H](CCCCN)C(=O)N[C@@H](CCCNC(=N)N)C(=O)N[C@@H](CCCNC(=N)N)C(=O)N[C@@H](CO)C(=O)N[C@@H](C)C(=O)N[C@@H](CC(=O)O)C(=O)N[C@@H](CCC(N)=O)C(=O)N[C@@H](Cc1ccccc1)C(=O)N[C@H](C(N)=O)[C@@H](C)CC)C(C)C [Compound 12] (HELM PEPTIDE1{[CCCCCCCCCCCCCCCC(=O)[*:2]].D.V.F.Q.S.S.E.[dK].R.R.S.A.D.Q.F.I.[am]}$$$$V2.0) | ***** (EC50≦25 nM (hAPJ), % IA≧80% and either % histamine≦35% or formal (+) charge≦1)
≥ 80 | ≤ 25 | 6 | 96 | inhibited | 17 | lack of dose-responsive activity | 44.0 | CCCCCCCCCCCCCCCC(=O)N[C@@H](CC(=O)O)C(=O)N[C@H](C(=O)N[C@@H](Cc1ccccc1)C(=O)N[C@@H](CCCNC(=N)N)C(=O)N[C@@H](CO)C(=O)N[C@@H](CO)C(=O)N[C@@H](CCC(=O)O)C(=O)N[C@H](CCCCN)C(=O)N[C@@H](CCCNC(=N)N)C(=O)N[C@@H](CCCNC(=N)N)C(=O)N[C@@H](CO)C(=O)N[C@@H](C)C(=O)N[C@@H](CC(=O)O)C(=O)N[C@@H](CCC(N)=O)C(=O)N[C@@H](Cc1ccccc1)C(=O)N[C@H](C(N)=O)[C@@H](C)CC)C(C)C [Compound 13] (HELM PEPTIDE1{[CCCCCCCCCCCCCCCC(=O)[*:2]].D.V.F.R.S.S.E.[dK].R.R.S.A.D.Q.F.I.[am]}$$$$V2.0) | ***** (EC50≦25 nM (hAPJ), % IA≧80% and either % histamine≦35% or formal (+) charge≦1)
≥ 80 | ≤ 25 | 17 | 99 |  |  | lack of dose-responsive activity | 34.7 | CCCCCCCCCCCCCCCC(=O)N[C@H](C(=O)N[C@H](C(=O)N[C@@H](Cc1ccccc1)C(=O)N[C@@H](CCCNC(=N)N)C(=O)N[C@@H](CO)C(=O)N[C@@H](CO)C(=O)N[C@@H](CCC(=O)O)C(=O)N1CCC[C@H]1C(=O)N[C@H](CCCCN)C(=O)N[C@@H](CCCNC(=N)N)C(=O)N[C@@H](CCCNC(=N)N)C(=O)N[C@@H](CO)C(=O)N[C@@H](C)C(=O)N[C@@H](CC(=O)O)C(=O)N[C@H](C(=O)N[C@@H](Cc1ccccc1)C(=O)N1CCC[C@H]1C(N)=O)[C@@H](C)CC)C(C)C)[C@@H](C)O [Compound 28] (HELM PEPTIDE1{[CCCCCCCCCCCCCCCC(=O)[*:2]].T.V.F.R.S.S.E.P.[dK].R.R.S.A.D.I.F.P.[am]}$$$$V2.0) | **** (EC50≦25 nM (hAPJ), % IA≧80% and either % histamine>35% or formal (+) charge>1)
